# Starred links: 1 amine or outer side, 2 acyl side, 3 side chain; linkers in the order of their positions; H or OH if unused. Positions of bridges follow the written chain, without caps; N, C: chain ends. Non-standard residues stand in square brackets, D forms with d. Residues, ends and D or L forms follow the SMILES beside them. *: point of attachment. pTerphenylCO(4''-OnC5H11) = CCCCCOc1ccc(-c2ccc(-c3ccc(C(=O)*)cc3)cc2)cc1; Orn(4R-OH,5R-OH) = O=C([C@H](C[C@@H](O)[C@@H](O)N[*:3])N[*:1])[*:2]; hTyr(3S-OH,4S-OH) = N[C@H](C(=O)O)[C@H](O)[C@@H](O)c1ccc(O)cc1; Pro(3S-OH,4S-Me) = C[C@H]1CN[C@H](C(=O)O)[C@H]1O; Hyp = O=C(O)[C@@H]1C[C@@H](O)CN1
# Columns and labels:
# [1] = in vivo; cited from earlier work
# [2] = Gastrointestinal related adverse events in clinical study; settings: 10 mg/day donepezil administered transdermally versus orally
# Procedure: The number of subjects with treatment related adverse events is assessed daily during the 36 day confinement period and for 7 visits over a 21 day wash-out period. Assessment of local skin irritation in the subjects of Arm 1 will also be assessed daily during the 36 day confinement period and for 7 visits over a 21 day wash-out period. Skin irritation is assessed using an 8 point categorical scale of no irritation; minimal erythema, barely perceptible; definite erythema readily visible; minimal edema or minimal popular response; erythema and papules; definite edema; erythema, edema and papules; vesicular eruption; strong reaction, spreading beyond application site.
# [3] = cited from earlier work
structure (smiles),measurement,setting,value
CCC1(c2ccccc2)C(=O)NC(=O)NC1=O [phenobarbital],half-life,[1],greater than 48 hours
CCC1(c2ccccc2)C(=O)NC(=O)N(C)C1=O (stereo not shown) [mephobarbital],half-life,[1],greater than 48 hours
NC(=O)N1c2ccccc2C=Cc2ccccc21 [carbamazepine],half-life,[1],greater than 48 hours
C[C@@H]1[C@H](O)[C@@H](C)/C=C/C=C/C=C/C=C/C=C/C=C/C=C/[C@H](O[C@@H]2O[C@H](C)[C@@H](O)[C@H](N)[C@@H]2O)C[C@@H]2O[C@](O)(C[C@@H](O)C[C@@H](O)[C@H](O)CC[C@@H](O)C[C@@H](O)CC(=O)O[C@H]1C)C[C@H](O)[C@H]2C(=O)O [amphotericin],half-life,[1],greater than 48 hours
Cc1cc2c(s1)Nc1ccccc1N=C2N1CCN(C)CC1 [olanzapine],half-life,[1],greater than 48 hours
CNCCC=C1c2ccccc2CCc2ccccc21 [nortriptyline],half-life,[1],greater than 48 hours
CCCCCCCCc1ccc(CCC(N)(CO)CO)cc1 [fingolimod],half-life,[1],greater than 48 hours
COc1cc2c(cc1OC)C(=O)C(CC1CCN(Cc3ccccc3)CC1)C2 (stereo not shown) [donepezil],"number of subjects experiencing diarrhea, transdermally versus orally",[2],two-fold lower
same,"number of subjects experiencing nausea, transdermally versus orally",[2],four-fold lower
"C[C@]12CC3C[C@](C)(C1)C[C@@](N)(C3)C2 [free base of memantine, 3,5-dimethyladamantan-1-amine]",water solubility,[3],900 µg/mL
O=C1CN=C(c2ccccc2Cl)c2cc([N+](=O)[O-])ccc2N1 [clonazepam],half-life,[1],greater than 48 hours
"CCCCCOc1ccc(-c2ccc(-c3ccc(C(=O)N[C@H]4C[C@@H](O)[C@@H](O)NC(=O)[C@@H]5[C@@H](O)[C@@H](C)CN5C(=O)[C@H]([C@@H](C)O)NC(=O)[C@H]([C@H](O)[C@@H](O)c5ccc(O)cc5)NC(=O)[C@@H]5C[C@@H](O)CN5C(=O)[C@H]([C@@H](C)O)NC4=O)cc3)cc2)cc1 [anidulafungin] ({pTerphenylCO(4''-OnC5H11)}-[Orn(4R-OH,5R-OH)]T[Hyp][hTyr(3S-OH,4S-OH)]T[Pro(3S-OH,4S-Me)]; lactam 1-C)",half-life,[1],greater than 48 hours
CO[C@H]1C[C@@H]2CC[C@@H](C)[C@@](O)(O2)C(=O)C(=O)N2CCCC[C@H]2C(=O)O[C@H]([C@H](C)C[C@@H]2CC[C@@H](O)[C@H](OC)C2)CC(=O)[C@H](C)/C=C(\C)[C@@H](O)[C@@H](OC)C(=O)[C@H](C)C[C@H](C)/C=C/C=C/C=C/1C [sirolimus],half-life,[1],greater than 48 hours
